This note sets out measurements from US20250162989A1, “USP30 INHIBITORS AND USES THEREOF” (Vincere Biosciences, Inc., priority 2021, published 2025).

The assay deals with recombinant USP30 (amino acids 57-517 of the human sequence) (Homo sapiens (Human), UniProt Q70CQ3). Nature of the assay: In vitro USP30 biochemical assay (Ubiquitin-Rhodamine substrate). To be noted: fluorescence. On the procedure: In vitro biochemical assay to establish the potency of compounds for USP30 inhibition: a 384-well plate assay using a fluorophore tagged substrate of USP30 was used for in vitro screening of compounds. Each compound was tested at
Chain of recombinant USP30 (amino acids 57-517 of the human sequence) (Q70CQ3 57-517): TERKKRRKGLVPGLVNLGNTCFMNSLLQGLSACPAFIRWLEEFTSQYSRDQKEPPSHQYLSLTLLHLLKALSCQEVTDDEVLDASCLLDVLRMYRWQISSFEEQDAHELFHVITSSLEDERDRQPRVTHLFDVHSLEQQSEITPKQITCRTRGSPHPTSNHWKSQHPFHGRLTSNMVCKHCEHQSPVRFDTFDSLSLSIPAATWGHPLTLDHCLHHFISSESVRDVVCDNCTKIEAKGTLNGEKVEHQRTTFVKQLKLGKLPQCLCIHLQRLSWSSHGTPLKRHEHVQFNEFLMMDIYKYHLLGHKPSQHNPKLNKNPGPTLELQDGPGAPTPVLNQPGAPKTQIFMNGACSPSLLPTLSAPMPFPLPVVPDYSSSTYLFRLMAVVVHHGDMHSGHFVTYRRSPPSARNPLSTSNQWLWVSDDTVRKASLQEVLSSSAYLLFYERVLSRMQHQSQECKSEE
10 different concentrations (0.5 to 10,000 nM) in duplicate wells. […] Data were analyzed using Graph Pad Prism software with a four-parameter (floating slope) fit to log concentration data to determine IC50s.

Setting [1] is: […] recombinant USP30, 25 nM Ubiquitin-Rhodamine.
[2] abbreviates: 1.5 nM recombinant USP30, 25 nM Ubiquitin-Rhodamine.

By IC50 is commonly meant the concentration that inhibits the measured activity by half.

Turning to `CC(C)(CN1CCOCC1)NS(=O)(=O)c1ccc(NC(=O)[C@H](CO)NC(=O)c2ccc(F)cc2)cc1` [Compound I-36, (S)-4-fluoro-N-(3-hydroxy-1-((4-(N-(2-methyl-1-morpholinopropan-2-yl)sulfamoyl)phenyl)amino)-1-oxopropan-2-yl)benzamide], the IC50 under setting [1] is greater than 10 µM.
`CC1(NC(=O)[C@H](Cc2ccccc2)NC(=O)c2ccc(F)cc2)CN(C#N)C1` [Compound I-250]: under setting [1], the IC50 is less than 0.05 µM.
For `CC(C)C[C@H](NC(=O)c1ccc(F)cc1)C(=O)Nc1ccc(S(=O)(=O)NC(C)(C)CF)cc1` [Compound I-230], under setting [2], the IC50 lay in the range of 0.05 to 1 µM.
In the case of `CC(=O)O[C@H]1C[C@@H](C(=O)Nc2ccc(S(=O)(=O)N[C@@H]3CCOC3)cc2)N(C(=O)c2ccc(F)cc2)C1` [Compound I-284], the half-maximal inhibitory concentration (IC50) under setting [1] was greater than 10 µM.
Consider `CO[C@@H]1C[C@@H](C(=O)Nc2ccc(S(=O)(=O)NC(C)(C)C)cc2)N(C(=O)c2ccc(F)cc2)C1` [Compound I-267], for which the IC50 under setting [2] was 1 to 10 µM.
The same measure, in the same setting: under `CC(C)(C)NS(=O)(=O)c1ccc(NC(=O)[C@H](CC2COC2)NC(=O)c2ccc(F)cc2)cc1` [Compound I-38, (S)—N-(1-((4-(N-(tert-butyl)sulfamoyl)phenyl)amino)-3-(oxetan-3-yl)-1-oxopropan-2-yl)-4-fluorobenzamide] stands 0.05 to 1 µM.
Consider `CC(C)(C)NS(=O)(=O)c1ccc(NC(=O)[C@H](Cc2ccccc2)NC(=O)c2cc[nH]c2)cc1` [Compound I-181], for which the IC50 under setting [1] was greater than 10 µM.
Consider `CC(C)(C)NS(=O)(=O)c1ccc(NC(=O)[C@H](CC#N)NC(=O)c2ccc(F)cc2)cc1` [Compound I-243], for which, under setting [2], the IC50 was in the range of 0.05 to 1 µM.
As to `CC(C)(C)NS(=O)(=O)c1ccc(NC(=O)[C@H](Cc2ccccc2)NC(=O)N2CCOCC2)cc1` [Compound I-184], under setting [2], the IC50 fell in the range of 1 to 10 µM.
For `CC(C)(C)NS(=O)(=O)c1ccc(NC(=O)[C@@H](CC2COC2)NC(=O)c2ccc(F)cc2)cc1` [Compound I-39, (R)—N-(1-((4-(N-(tert-butyl)sulfamoyl)phenyl)amino)-3-(oxetan-3-yl)-1-oxopropan-2-yl)-4-fluorobenzamide], the IC50 under setting [1] is greater than 10 µM.
Regarding `CN(C(=O)c1ccc(F)cc1)[C@@H](Cc1ccccc1)C(=O)Nc1ccc(S(=O)(=O)NCc2ccnn2C)cc1` [Compound I-229], the 50% inhibitory concentration (IC50) under setting [2] was in the range of 1 to 10 µM.
Same read-out and setting: next, `CO[C@H]1C[C@@H](C(=O)Nc2ccc(S(=O)(=O)NC(C)(C)C)cc2)N(C(=O)c2ccc(F)cc2)C1` [Compound I-290]: 1 to 10 µM.
Same read-out and setting: next, `N#CN1CC[C@H](NC(=O)[C@H](Cc2ccccc2)NC(=O)c2ccc(F)cc2)C1` [Compound I-123]: 1 to 10 µM; `CC(C)(C)NS(=O)(=O)c1ccc(NC(=O)[C@@H]2C[C@@H](C3CCCCC3)CN2C(=O)c2ccc(F)cc2)cc1` [Compound I-253]: 0.05 to 1 µM.
In the case of `CC(C)(C)NS(=O)(=O)c1ccc(NC(=O)[C@H](CC2CCN(c3ccccc3)CC2)NC(=O)c2ccc(F)cc2)cc1` [Compound I-116], under setting [1], the half-inhibitory concentration (IC50) was less than 0.05 µM.
As for `COc1cc(NC(=O)[C@H](CC2CCOCC2)NC(=O)c2ccc(F)cc2)cnc1S(=O)(=O)NC(C)(C)C` [Compound I-75], the IC50 under setting [2] was in the range of 0.05 to 1 µM.
Same read-out and setting: under `CN1CCC(NS(=O)(=O)c2ccc(NC(=O)[C@H](CC3CCOCC3)NC(=O)c3ccc(F)cc3)cn2)CC1` [Compound I-98] stands 1 to 10 µM.
Still for that read-out and setting: next, `O=C(Nc1ccc(S(=O)(=O)NC2COC2)cc1)[C@@H]1C[C@@H](c2ccccc2)CN1C(=O)c1ccc(F)cc1` [Compound I-263]: 1 to 10 µM; `CC(C)C[C@H](NC(=O)c1ccc(F)cn1)C(=O)Nc1ccc(S(=O)(=O)NC(C)(C)C(F)(F)F)nc1` [Compound I-210]: 0.05 to 1 µM.
On to `CO[C@@H]1C[C@@H](C(=O)Nc2ccc(S(=O)(=O)NC3COC3)cc2)N(C(=O)c2ccc(F)cc2)C1` [Compound I-278], for which the IC50 under setting [1] was greater than 10 µM.
Same read-out and setting: next, `CO[C@@H]1C[C@@H](C(=O)Nc2ccc(S(=O)(=O)NC(C)(C)CO)cc2)N(C(=O)c2ccc(F)cc2)C1` [Compound I-268]: greater than 10 µM.
For the molecule `COc1cc(NC(=O)[C@H](Cc2ccccc2)NC(=O)c2ccc(F)cc2)c(Cl)cc1S(=O)(=O)NC1(CO)CC1` [Compound I-139], the IC50 under setting [2] lay in the range of 1 to 10 µM.
Still for that read-out and setting: under `CC(C)(C)NS(=O)(=O)c1ccc(NC[C@H](O)[C@H](CC2CCNCC2)NC(=O)c2ccc(F)cc2)cc1` [Compound I-235] stands 1 to 10 µM.
Take `N#CC1CC[C@@H](NC(=O)[C@H](Cc2ccccc2)NC(=O)c2ccc(F)cc2)C1` (stereo partly shown) [Compound I-246]: the IC50 under setting [1] was greater than 10 µM.
Still for that read-out and setting: under `CO[C@H]1C[C@@H](C(=O)Nc2ccc(S(=O)(=O)N[C@@H]3CCOC3)cc2)N(C(=O)c2ccc(F)cc2)C1` [Compound I-288] stands greater than 10 µM.
Regarding `CN1CCC(C[C@H](NC(=O)c2ccc(F)cc2)C(=O)Nc2ccc(S(=O)(=O)NC3CCOCC3)nc2)CC1` [Compound I-140], the half-maximal inhibitory concentration (IC50) under setting [2] was 0.05 to 1 µM.
The same measure, in the same setting: next, `CC(C)(C)NS(=O)(=O)N1CCC(NC(=O)[C@H](Cc2ccccc2)NC(=O)c2ccc(F)cc2)CC1` [Compound I-58, (S)—N-(1-((1-(N-(tert-butyl)sulfamoyl)piperidin-4-yl)amino)-1-oxo-3-phenylpropan-2-yl)-4-fluorobenzamide]: 1 to 10 µM.
On the same count and under the same terms, under `CC(C)(C)NS(=O)(=O)c1ccc(NC(=O)[C@H](Cc2ccccc2)NC(=O)C2CCNCC2)cc1` [Compound I-192] stands 1 to 10 µM; under `COc1cc(NC(=O)[C@H](CC2CCN(C)CC2)NC(=O)c2ccc(F)cc2)cnc1S(=O)(=O)NC(C)(C)CO` [Compound I-100], 1 to 10 µM; under `CC(C)(C)NS(=O)(=O)c1ccc(NC(=O)[C@H](CC2CCN(C(=O)OCc3ccccc3)CC2)NC(=O)c2ccc(F)cc2)cc1` [Compound I-43, benzyl (S)-4-(3-((4-(N-(tert-butyl)sulfamoyl)phenyl)amino)-2-(4-fluorobenzamido)-3-oxopropyl)piperidine-1-carboxylate], 0.05 to 1 µM.
The same measure, in the same setting: next, `CC(C)[C@H](NC(=O)c1ccc(F)cc1)C(=O)Nc1ccc(S(=O)(=O)NC(C)(C)C)cc1` [Compound I-206]: 0.05 to 1 µM; `CC(C)(NS(=O)(=O)c1ccc(NC(=O)[C@H](Cc2ccccn2)NC(=O)c2ccc(F)cc2)cc1)C(F)(F)F` [Compound I-212]: 0.05 to 1 µM.
On to `O=C(N[C@@H](Cc1ccccc1)C(=O)Nc1ccc(S(=O)(=O)NCc2cnccn2)cc1)c1ccc(F)cc1` [Compound I-223], for which the IC50 under setting [2] lay within 0.05 to 1 µM.
As for `CC(C)(C)NS(=O)(=O)c1cccc2c(NC(=O)[C@H](Cc3ccccc3)NC(=O)N3CC4(COC4)C3)cccc12` [Compound I-197], the IC50 under setting [2] is 0.05 to 1 µM.
Regarding `COc1cc(NC(=O)[C@H](CC2CCN(C)CC2)NC(=O)c2ccc(F)cc2)ccc1S(=O)(=O)N[C@@H]1CCOC1` [Compound I-95], the IC50 under setting [2] was 0.05 to 1 µM.
In the case of `Cn1nccc1CCNS(=O)(=O)c1ccc(NC(=O)[C@H](Cc2ccccc2)NC(=O)c2ccc(F)cc2)cc1` [Compound I-237], the IC50 under setting [2] was 0.05 to 1 µM.
Still for that read-out and setting: under `CC(C)(C)NS(=O)(=O)c1ccc(NC[C@H](O)[C@H](Cc2ccncc2)NC(=O)c2ccc(F)cc2)cc1` [Compound I-236] stands 0.05 to 1 µM.
As for `CC(C)N1CCC(C[C@H](NC(=O)c2ccc(F)cc2)C(=O)Nc2ccc(S(=O)(=O)NC(C)(C)C)cc2)CC1` [Compound I-287], under setting [1], the IC50 is less than 0.05 µM.
Turning to `CC(C)(C)NS(=O)(=O)c1ccc(NC(=O)[C@H](Cc2ccccc2)NC(=O)C2CCN(C#N)CC2)cc1` [Compound I-233], the IC50 under setting [2] was in the range of 0.05 to 1 µM.
As to `O=C(N[C@@H](Cc1ccccc1)C(=O)N[C@@H]1CCN(S(=O)(=O)NC2CCOC2)C1)c1ccc(F)cc1` (stereo partly shown) [Compound I-170], under setting [1], the 50% inhibitory concentration (IC50) is greater than 10 µM.
On to `CC(=O)O[C@@H]1C[C@@H](C(=O)Nc2ccc(S(=O)(=O)N[C@@H]3CCOC3)cc2)N(C(=O)c2ccc(F)cc2)C1` [Compound I-286], for which the IC50 under setting [2] fell in the range of 1 to 10 µM.
The same measure, in the same setting: next, `O=C(N[C@@H](CC1CCNCC1)C(=O)Nc1ccc(S(=O)(=O)NC2COC2)nc1)c1ccc(F)cc1` [Compound I-111]: 1 to 10 µM.
The same measure, in the same setting: next, `CC(C)(C)NC(=O)N1CCC(NC(=O)[C@H](Cc2ccccc2)NC(=O)c2ccc(F)cc2)CC1` [Compound I-57, (S)—N-(tert-butyl)-4-(2-(4-fluorobenzamido)-3-phenylpropanamido)piperidine-1-carboxamide]: 1 to 10 µM.
Take `CC(C)(CO)NS(=O)(=O)c1ccc(NC(=O)[C@@H]2C[C@@H](O)CN2C(=O)c2ccc(F)cc2)cc1` [Compound I-275]: the IC50 under setting [1] was greater than 10 µM.
As to `CC(C)C[C@H](NC(=O)c1ccc(F)cc1)C(=O)Nc1ccc(S(=O)(=O)NC2COC2)cc1` [Compound I-22], the IC50 under setting [2] was in the range of 0.05 to 1 µM.
On the same count and under the same terms, under `COc1cc(NC(=O)[C@H](CC2CCOCC2)NC(=O)c2ccc(F)cc2)cnc1S(=O)(=O)NC1CCC1` [Compound I-81] stands 0.05 to 1 µM; under `COc1cc(NC(=O)[C@H](CC(C)C)NC(=O)c2ccc(F)cc2)cnc1S(=O)(=O)NC(C)(C)CO` [Compound I-73], 1 to 10 µM.
On the same count and under the same terms, next, `O=C(N[C@H](C(=O)Nc1ccc(S(=O)(=O)NC2COC2)cc1)C1CC1)c1ccc(F)cc1` [Compound I-54, (S)—N-(1-cyclopropyl-2-((4-(N-(oxetan-3-yl)sulfamoyl)phenyl)amino)-2-oxoethyl)-4-fluorobenzamide]: 1 to 10 µM.
For the molecule `O=C(N[C@@H](Cc1ccccc1)C(=O)N[C@@H]1CCN(S(=O)(=O)NC2COC2)C1)c1ccc(F)cc1` [Compound I-169], under setting [1], the IC50 was greater than 10 µM.
Take `CO[C@@H]1C[C@@H](C(=O)Nc2ccc(S(=O)(=O)N[C@@H]3CCOC3)cc2)N(C(=O)c2ccc(F)cc2)C1` [Compound I-277]: the IC50 under setting [2] is 0.05 to 1 µM.
On the same count and under the same terms, next, `O=C(N[C@@H](Cc1ccccc1)C(=O)Nc1ccc(S(=O)(=O)NCc2ccn[nH]2)cc1)c1ccc(F)cc1` [Compound I-226]: 0.05 to 1 µM.
For `CNC(=O)N1CCC(NC(=O)[C@H](Cc2ccccc2)NC(=O)c2ccc(F)cc2)CC1` [Compound I-119], the IC50 under setting [1] is greater than 10 µM.
